How the values were obtained:
Assay type in all cases: in vivo
[1] = test system: pale smartweed (Po); assay: Test Example 3: herbicidal effects by upland field foliage treatment; parameters: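 grade of growth control; 5 = at least 90%; 4 = 70 to 90%; 3 = 50 to 70%; 2 = 30 to 50%; 1 = 10 to 30%; 0 = under 10%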
Experimental: (§1) (Test on Herbicidal Effects by Upland Field Foliage Treatment)
(§2) In a plastic pot (surface area: 120 cm^2) filled with sand, barnyardgrass (Ec), Diaitaria ciliaris (Di), pale smartweed (Po), slender amaranth (Am), common lambsquarters (Ch) and rice flatsedge (Ci) were sown and covered with soil and were cultured in a green house for 2 weeks. […] The plants were then cultured in the green house, and the evaluation of the herbicidal effects was conducted on the 14th day after the treatment in accordance with the standards as identified in Table 47. Symbol—represents “not tested”.

[2] = test system: barnyardgrass (Ec); assay: as above; parameters: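 grade of growth control; 5 = at least 90%; 4 = 70 to 90%; 3 = 50 to 70%; 2 = 30 to 50%; 1 = 10 to 30%; 0 = under 10%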
Experimental: as §1, §2

[3] = test system: slender amaranth (Am); assay: as above; parameters: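 grade of growth control; 5 = at least 90%; 4 = 70 to 90%; 3 = 50 to 70%; 2 = 30 to 50%; 1 = 10 to 30%; 0 = under 10%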
Experimental: as §1, §2

[4] = test system: common lambsquarters (Ch); assay: as above; parameters: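 grade of growth control; 5 = at least 90%; 4 = 70 to 90%; 3 = 50 to 70%; 2 = 30 to 50%; 1 = 10 to 30%; 0 = under 10%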
Experimental: as §1, §2

[5] = test system: Diaitaria ciliaris (Di); assay: as above; parameters: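 grade of growth control; 5 = at least 90%; 4 = 70 to 90%; 3 = 50 to 70%; 2 = 30 to 50%; 1 = 10 to 30%; 0 = under 10%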
Experimental: as §1, §2

[6] = test system: rice flatsedge (Ci); assay: as above; parameters: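 grade of growth control; 5 = at least 90%; 4 = 70 to 90%; 3 = 50 to 70%; 2 = 30 to 50%; 1 = 10 to 30%; 0 = under 10%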
Experimental: as §1, §2

[7] = test system: bulrush (Sc); assay: Test Example 1: herbicidal effects by paddy field soil treatment; conditions: 100 g of the active ingredient per 10 ares, 21st day after the application, index 0-5 of Table 47;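 further: grade of growth control; 5 = at least 90%; 4 = 70 to 90%; 3 = 50 to 70%; 2 = 30 to 50%; 1 = 10 to 30%; 0 = under 10%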
Experimental: (§3) (Test on Herbicidal Effects by Paddy Field Soil Treatment)
(§4) In a plastic pot (surface area: 100 cm^2) filled with paddy field soil, barnyardgrass (Ec), monochoria (Mo) and bulrush (Sc) were sown after puddling and leveling, and flooded to a water depth of 3 cm. […] The dose was 100 g of the active ingredient per 10 ares. The plants were then cultured in a green house, and the evaluation of the herbicidal effects was conducted on the 21st day after the application in accordance with the standards as identified in Table 47.

[8] = test system: barnyardgrass (Ec); assay: as above; conditions: 100 g of the active ingredient per 10 ares, 21st day after the application, index 0-5 of Table 47
Experimental: as §3, §4

[9] = test system: monochoria (Mo); assay: as above; conditions: 100 g of the active ingredient per 10 ares, 21st day after the application, index 0-5 of Table 47;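 further: grade of growth control; 5 = at least 90%; 4 = 70 to 90%; 3 = 50 to 70%; 2 = 30 to 50%; 1 = 10 to 30%; 0 = under 10%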
Experimental: as §3, §4

[10] = 100 g of the active ingredient per 10 ares, evaluated on the 14th day after treatment
[11] = 100 g active ingredient per 10 ares, evaluated 14th day after treatment

| Compound | Herbicidal effects Po [1, 10] | Herbicidal effects Ec [2, 10] | Herbicidal effects Am [3, 10] | Herbicidal effects Ch [4, 10] | Herbicidal effects Di [5, 10] | Herbicidal effects Ci [6, 10] | Herbicidal effects Sc [7] | Herbicidal effects Ec [8] | Herbicidal effects Mo [9] | Herbicidal effects Po [1, 11] | Herbicidal effects Ec [2, 11] | Herbicidal effects Am [3, 11] | Herbicidal effects Ch [4, 11] | Herbicidal effects Di [5, 11] | Herbicidal effects Ci [6, 11] |
| --- | --- | --- | --- | --- | --- | --- | --- | --- | --- | --- | --- | --- | --- | --- | --- |
| CC(C)=NOC(=O)c1cc(-c2ccc(C(F)(F)F)n(C)c2=O)c(F)cc1Cl [1-68] | 5 | 5 | 5 | 5 | 5 | 5 | 5 | 5 | 5 |  |  |  |  |  |  |
| COC(=O)C(Cl)Cc1cc(-c2ccc(C(F)(F)F)n(C)c2=O)c(F)cc1Cl (stereo not drawn) [1-70] | 5 | 5 | 5 | 5 | 5 | 5 | 5 | 5 | 5 |  |  |  |  |  |  |
| CCCCCOC(=O)CSc1cc(-c2ccc(C(F)(F)F)n(C)c2=O)c(Cl)cc1Cl [1-123] | 5 | 4 | 5 | 5 | 5 | 5 | 5 | 5 | 5 |  |  |  |  |  |  |
| Cn1c(C(F)(F)F)ccc(-c2cc(SCC(=O)O)c(Cl)cc2Cl)c1=O [1-127] | 5 | 4 | 5 | 5 | 5 | 5 | 5 | 5 | 5 |  |  |  |  |  |  |
| CCOC(=O)COC(=O)c1cc(-c2ccc(C(F)(F)F)n(C)c2=O)c(F)cc1Cl [1-142] | 5 | 5 | 5 | 5 | 5 | 5 | 5 | 5 | 5 |  |  |  |  |  |  |
| Cn1c(C(F)(F)F)ccc(-c2cc(C(N)=O)c(Cl)cc2F)c1=O [1-145] | 5 | 5 | 5 | 5 | 5 | 5 | 5 | 5 | 5 |  |  |  |  |  |  |
| Cn1c(C(F)(F)F)ccc(-c2cc(OC3CCCO3)c(Cl)cc2F)c1=O (stereo not drawn) [Compound 1-183] | 5 | 4 | 5 | 5 | 5 | 5 | 5 | 5 | 5 |  |  |  |  |  |  |
| C=CC(=O)c1cc(-c2ccc(C(F)(F)F)n(C)c2=O)c(F)cc1Cl [Compound 1-198] |  |  |  |  |  |  | 5 | 5 | 5 | 5 | 5 | 5 | 5 | 5 | 5 |
| Cn1c(C(F)(F)F)ccc(-c2cc(O)c(Cl)cc2F)c1=O [Compound No. 1-13] | 5 | 5 | 5 | 5 | 5 | 5 | 5 | 5 | 5 |  |  |  |  |  |  |
